According to ChEMBL document CHEMBL1141615, “Targeting RNA with cysteine-constrained peptides” (Bioorg Med Chem Lett, 2008):

Assay: Binding affinity to BIV transactivating response element RNA
Set-up: species or system Bovine immunodeficiency virus

Kd [µM]	SMILES
9.1	C[C@@H](O)[C@@H]1NC(=O)[C@H](CO)NC(=O)[C@H](Cc2c[nH]c3ccccc23)NC(=O)[C@H](CCC(N)=O)NC(=O)[C@H](Cc2cnc[nH]2)NC(=O)[C@H]([C@@H](C)O)NC(=O)[C@@H](N)CSSC[C@H](C(N)=O)NC(=O)[C@H](CCCCN)NC1=O
7.9	C[C@@H](O)[C@@H]1NC(=O)CNC(=O)[C@@H](N)CSSC[C@H](C(N)=O)NC(=O)[C@H](CCC(N)=O)NC(=O)[C@@H]2CCCN2C(=O)[C@H](Cc2c[nH]cn2)NC(=O)[C@H](Cc2cnc[nH]2)NC(=O)[C@H](Cc2c[nH]c3ccccc23)NC1=O
